One series concerns Cucumber fusarium wilt. Nature of the series: In vitro fungicidal activity, PDA colony diameter. In kind it is cell-based. To be noted: 96 h, 50 mg/kg, inhibition of colony diameter, read-out: Fungicidal activity (%) Cucumber fusarium wilt.
Series [1] concerns Cercospora brown spot of peanut. Nature of the series: In vitro fungicidal activity, PDA colony diameter. The class given is cell-based. As to conditions: 96 h, 50 mg/kg, inhibition of colony diameter, read-out: Fungicidal activity (%) Cercospora brown spot of peanut.
The next series deals with Tomato early blight. Briefly: In vitro fungicidal activity, PDA colony diameter. In kind it is cell-based, Alternaria solani. As to conditions: 50 mg/kg, inhibition of colony diameter; read-out: Fungicidal activity (%) Tomato early blight.
For a further series, the system named is Wheat head blight. Nature of the series: whole plant or invertebrate. In kind it is cell-based. As to conditions: Triticum aestivum, read-out: Fungicidal activity (%) Wheat head blight.
Another series relates to Rice bakanae disease. Nature of the series: In vitro fungicidal activity, PDA colony diameter. In kind it is cell-based. To be noted: 50 mg/kg, inhibition of colony diameter; read-out: Fungicidal activity (%) Rice bakanae disease.
The next series concerns Sclerotinia rot of colza. Nature of the series: In vitro fungicidal activity, PDA colony diameter. The class given is cell-based. To be noted: 96 h, 50 mg/kg, inhibition of colony diameter, read-out: Fungicidal activity (%) Sclerotinia rot of colza.
A further series concerns Apple ring rot. Briefly: In vitro fungicidal activity, PDA colony diameter. The class given is cell-based. As to conditions: inhibition of colony diameter. An outline of the steps:
(§1)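 Mycelial plugs cut from the edge of 7-day PDA colonies placed on PDA containing 50 mg/kg compound or on compound-free PDA, grown 4 days. Colony diameters measured; percent inhibition calculated against untreated control.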

The test system of series [2] is Capsicum phytophthora blight. Briefly: In vitro fungicidal activity, PDA colony diameter. The class given is cell-based. As to conditions: 96 h. An outline of the steps:
as §1

Another series deals with Wheat sheath blight. Nature of the series: In vitro fungicidal activity, PDA colony diameter. In kind it is cell-based. To be noted: 50 mg/kg, inhibition of colony diameter; read-out: Fungicidal activity (%) Wheat sheath blight.
The subject of series [3] is Corn southern leaf blight. Briefly: In vitro fungicidal activity, PDA colony diameter. The class given is cell-based. As to conditions: 50 mg/kg, inhibition of colony diameter; read-out: Fungicidal activity (%) Corn southern leaf blight.
The next series relates to Watermelon anthracnose. Nature of the series: In vitro fungicidal activity, PDA colony diameter. In kind it is cell-based. As to conditions: 50 mg/kg, inhibition of colony diameter; read-out: Fungicidal activity (%) Watermelon anthracnose.
The test system of a further series is Potato late blight. Briefly: microbe, parasite or virus in culture. To be noted: Phytophthora infestans, 96 h, read-out: Fungicidal activity (%) Potato late blight. The class given is cell-based.
The test system of another series is Rice sheath blight. Briefly: In vitro fungicidal activity, PDA colony diameter. In kind it is cell-based. As to conditions: 50 mg/kg, inhibition of colony diameter; read-out: Fungicidal activity (%) Rice sheath blight.
For the next series, the system named is Armyworms. Briefly: Test of insecticidal activity against armyworms (leaf immersion). To be noted: 600 mg/kg, 3-4 days.
For a further series, the system named is Maize borers. Briefly: Test of insecticidal activity against maize borers (leaf immersion). As to conditions: read-out: Mortalities (%) Maize borers.
The subject of series [4] is mosquito larvae (Culer pipiens pallens). Briefly: Test of insecticidal activity against mosquito larvae (checked after 24 h). To be noted: 24 h, read-out: Mortalities (%) against mosquito larvae.
Series [5] has as its system bean aphides (Aphis laburni Kaltenbach). Briefly: Test of insecticidal activity against aphides (leaf immersion, checked after 96 h). As to conditions: Aphis, 96 h, read-out: Mortalities (%) against aphides.
Protocol: The insecticidal activity against aphides is tested through the following steps: the tested aphides are bean aphides (Aphis laburni Kaltenbach), a normal colony fed with broad bean leaves in a laboratory. The pesticide is weighed, 1 mL DMF is added to dissolve the pesticide, then two drops of emulsifier, Tween-20 are added, and distilled water is added in an appropriate amount; the mixture is stirred to a homogeneous state to prepare pesticide solution at required concentration (see the following table for the specific concentration). […] In a control group, only emulsifier and solvent are added into distilled water, and the mixture is stirred to a homogeneous state.
The subject of a further series is Cotton bollworms. Nature of the series: Test of insecticidal activity against cotton bollworms (pesticide mixed into feedstuff). As to conditions: read-out: Mortalities (%) Cotton bollworms.

Consider three compounds from patent publication US11203577B2, “Sulfonyl-structure-containing triazinone derivatives, their preparation methods and their uses in insect killing and/or bacterium killing” (Nankai University, priority 2017, dated 2021).

Protocol for Cotton bollworms: Method of testing against cotton bollworms: the pesticide is mixed into the feedstuff, i.e., 3 mL prepared solution is added into about 27 g freshly prepared feedstuff; thus, required concentration is obtained by diluting by 10 times.

For `CC1=NNC(=O)N(NS(C)(=O)=O)C1` [Ia-1, N-(6-methyl-3-oxo-2,3-dihydro-1,2,4-triazin-4(5H)-yl)-methylsulfonylamide], the inhibition of growth at 50 mg/kg in the series with Cucumber fusarium wilt came out at 0%; in series [1] it was 26.3%; with Sclerotinia rot of colza, 31.7%; in series [2] it was 46.9%; with Potato late blight, 33.3%. Further, the inhibition at 50 mg/kg worked out at 9.5% in the series on Tomato early blight; 13.3% with Wheat head blight; 27.8% in the series on Rice bakanae disease; 31% in the series on Apple ring rot; 63.6% with Wheat sheath blight; 20.8% in series [3]. The inhibition at 50 mg/kg in the series with Watermelon anthracnose was found to be 20.8%; in the series on Rice sheath blight it was 11.1%. For the same compound, the “Mortalities (%) Armyworms” value with Armyworms came to 5%. The figures for the mortality at 600 mg/kg (in the series with Maize borers; in series [5]; in the series on Cotton bollworms) were 0%, 100% and 40%, respectively. Also, the mortality at 10 mg/kg was 55% in series [4] and 100% in series [5]. In addition, the mortality at 5 mg/kg in series [5] turned out to be 25%. The mortality at 100 mg/kg in series [5] is 100%.
Turning to `CC1=NNC(=O)N(NS(=O)(=O)c2ccc3c(c2)CCO3)C1` [Ia-33, N-(6-methyl-3-oxo-2,3-dihydro-1,2,4-triazin-4(5H)-yl)-2,3-dihydrobenzofuran-5-sulfonamide], the inhibition of growth at 50 mg/kg is 5.1% in the series with Cucumber fusarium wilt; 11.5% in series [1]; 12.5% in the series with Sclerotinia rot of colza; 19.2% in series [2]; 19% in the series with Potato late blight. In addition, the inhibition at 50 mg/kg is 15% in the series with Tomato early blight; 33.3% with Wheat head blight; 3.7% with Rice bakanae disease; 9.5% in the series with Apple ring rot; 9.4% with Wheat sheath blight; 11.1% in series [3]. In addition, the figures for the inhibition at 50 mg/kg with Watermelon anthracnose and in the series with Rice sheath blight were 0% and 10.7%, respectively. Also, in the series with Armyworms, the “Mortalities (%) Armyworms” value is reported as 5%. Also, the figures for the mortality at 600 mg/kg (in the series on Maize borers; in series [5]; with Cotton bollworms) were 0%, 90% and 0%, respectively. Further, in series [4], the mortality at 10 mg/kg came to 85%. Further, the mortality at 100 mg/kg in series [5] worked out at 40%.
With `CC(=O)Nc1ccc(S(=O)(=O)N(N2CC(C)=NNC2=O)S(=O)(=O)c2ccc(NC(C)=O)cc2)cc1` [Ib-8, 4-acetamido-N-(6-methyl-3-oxo-2,3-dihydro-1,2,4-triazin-4(5H)-yl)-N-(4-acetamidobenzenesulfonyl)-benzenesulfonamide], the inhibition of growth at 50 mg/kg came out at 0% with Cucumber fusarium wilt; 15.8% in [1]; 33.3% in the series with Sclerotinia rot of colza; 20.4% in series [2]; 29.6% with Potato late blight. For the same compound, the inhibition at 50 mg/kg amounted to 23.8% in the series on Tomato early blight; 0% with Wheat head blight; 22.2% in the series on Rice bakanae disease; 27.6% in the series on Apple ring rot; 45.5% in the series on Wheat sheath blight; 16.7% in series [3]. In addition, the values for the inhibition at 50 mg/kg in the series with Watermelon anthracnose and in the series on Rice sheath blight were 12.5% and 27%, respectively. The “Mortalities (%) Armyworms” value with Armyworms is 20%. Further, the figures for the mortality at 600 mg/kg (in the series on Maize borers; in series [5]; in the series with Cotton bollworms) were 15%, 90% and 15%, respectively. Further, in series [4], the mortality at 10 mg/kg came out at 30%. Also, the mortality at 100 mg/kg in series [5] came out at 50%.
